Source: PubChem BioAssay (NCI)
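Cultured in 96-well plates, cells were exposed to test compound for 48 hours across five concentrations. GI50 is the concentration that inhibits growth by half. TGI: concentration producing complete growth inhibition.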

Tests used:
Test in all cases: growth of human tumour cells (NCI), 48 h
NCI-H23 lung = system: NCI-H23 lung
A498 renal = system: A498 renal
OVCAR-8 ovarian = system: OVCAR-8 ovarian
SF-268 CNS = system: SF-268 CNS
MALME-3M melanoma = system: MALME-3M melanoma
RXF 393 renal = system: RXF 393 renal
DU-145 prostate = system: DU-145 prostate
UACC-62 melanoma = system: UACC-62 melanoma
NCI/ADR-RES ovarian = system: NCI/ADR-RES ovarian
U251 CNS = system: U251 CNS
M14 melanoma = system: M14 melanoma
HCT-116 colon = system: HCT-116 colon
A549 NSCLC = system: A549 NSCLC
HS 578T breast = system: HS 578T breast
CAKI-1 renal = system: CAKI-1 renal
KM12 colon = system: KM12 colon
SNB-19 CNS = system: SNB-19 CNS
SK-OV-3 ovarian = system: SK-OV-3 ovarian
MDA-MB-435 = system: MDA-MB-435
HOP-62 NSCLC = system: HOP-62 NSCLC
SW-620 colon = system: SW-620 colon
UACC-257 melanoma = system: UACC-257 melanoma
HCC-2998 colon = system: HCC-2998 colon
K-562 leukemia = system: K-562 leukemia
SNB-75 CNS = system: SNB-75 CNS
HCT-15 colon = system: HCT-15 colon
CCRF-CEM leukemia = system: CCRF-CEM leukemia
COLO 205 colon = system: COLO 205 colon
RPMI-8226 leukemia = system: RPMI-8226 leukemia
SK-MEL-28 melanoma = system: SK-MEL-28 melanoma
NCI-H460 lung = system: NCI-H460 lung
OVCAR-3 ovarian = system: OVCAR-3 ovarian
OVCAR-4 ovarian = system: OVCAR-4 ovarian
SR leukemia = system: SR leukemia
SK-MEL-5 melanoma = system: SK-MEL-5 melanoma
HOP-92 NSCLC = system: HOP-92 NSCLC
T-47D breast = system: T-47D breast
LOX IMVI melanoma = system: LOX IMVI melanoma
HT29 colon = system: HT29 colon
NCI-H226 lung = system: NCI-H226 lung
OVCAR-5 ovarian = system: OVCAR-5 ovarian
MCF7 breast = system: MCF7 breast
786-0 renal = system: 786-0 renal
SK-MEL-2 melanoma = system: SK-MEL-2 melanoma
EKVX NSCLC = system: EKVX NSCLC
IGROV1 ovarian = system: IGROV1 ovarian
PC-3 prostate = system: PC-3 prostate
SN12C renal = system: SN12C renal
MDA-MB-231 breast = system: MDA-MB-231 breast
MOLT-4 leukemia = system: MOLT-4 leukemia
HL-60(TB) leukemia = system: HL-60(TB) leukemia
ACHN renal = system: ACHN renal
BT-549 breast = system: BT-549 breast
UO-31 renal = system: UO-31 renal
SF-295 CNS = system: SF-295 CNS
TK-10 renal = system: TK-10 renal
SF-539 CNS = system: SF-539 CNS
NCI-H522 lung = system: NCI-H522 lung

With `COc1ccc2oc(=N)c(C(=O)Nc3ccccn3)cc2c1` as the compound, how does the TGI (NCI-H23 lung) read?
The TGI was over 100 µM.

And the TGI (A498 renal)?
Its TGI is over 100 µM.

What about the TGI (OVCAR-8 ovarian) of the same compound?
Its TGI is over 100 µM.

What about the TGI (SF-268 CNS) of the same compound?
The TGI was over 100 µM.

And the TGI (MALME-3M melanoma)?
The TGI was over 100 µM.

And the TGI (RXF 393 renal)?
The TGI was over 100 µM.

And the TGI (DU-145 prostate)?
The TGI was over 100 µM.

What about the TGI (UACC-62 melanoma) of the same compound?
The TGI was over 100 µM.

And the TGI (NCI/ADR-RES ovarian)?
Its TGI is over 100 µM.

What about the TGI (U251 CNS) of the same compound?
The TGI was over 100 µM.

What about the TGI (M14 melanoma) of the same compound?
The TGI was over 100 µM.

What about the TGI (HCT-116 colon) of the same compound?
Its TGI is over 100 µM.

What about the TGI (A549 NSCLC) of the same compound?
Its TGI is over 100 µM.

What about the TGI (HS 578T breast) of the same compound?
The TGI was over 100 µM.

And the TGI (CAKI-1 renal)?
The TGI was over 100 µM.

What about the TGI (KM12 colon) of the same compound?
Its TGI is over 100 µM.

And the TGI (SNB-19 CNS)?
The TGI was over 100 µM.

What about the TGI (SK-OV-3 ovarian) of the same compound?
The TGI was over 100 µM.

And the TGI (MDA-MB-435)?
Its TGI is over 100 µM.

What about the TGI (HOP-62 NSCLC) of the same compound?
Its TGI is over 100 µM.

What about the TGI (SW-620 colon) of the same compound?
The TGI was over 100 µM.

And the TGI (UACC-257 melanoma)?
The TGI was over 100 µM.

What about the TGI (HCC-2998 colon) of the same compound?
The TGI was over 100 µM.

And the TGI (K-562 leukemia)?
Its TGI is over 100 µM.

And the TGI (SNB-75 CNS)?
Its TGI is over 100 µM.

What about the TGI (HCT-15 colon) of the same compound?
The TGI was over 100 µM.

And the TGI (CCRF-CEM leukemia)?
Its TGI is over 100 µM.

What about the TGI (COLO 205 colon) of the same compound?
Its TGI is over 100 µM.

What about the TGI (RPMI-8226 leukemia) of the same compound?
The TGI was over 100 µM.

What about the TGI (SK-MEL-28 melanoma) of the same compound?
Its TGI is over 100 µM.

What about the TGI (NCI-H460 lung) of the same compound?
The TGI was over 100 µM.

And the TGI (OVCAR-3 ovarian)?
Its TGI is over 100 µM.

What about the TGI (OVCAR-4 ovarian) of the same compound?
The TGI was over 100 µM.

What about the TGI (SR leukemia) of the same compound?
Its TGI is over 100 µM.

What about the TGI (SK-MEL-5 melanoma) of the same compound?
The TGI was over 100 µM.

And the TGI (HOP-92 NSCLC)?
The TGI was over 100 µM.

What about the TGI (T-47D breast) of the same compound?
Its TGI is over 100 µM.

What about the TGI (LOX IMVI melanoma) of the same compound?
Its TGI is over 100 µM.

What about the TGI (HT29 colon) of the same compound?
Its TGI is over 100 µM.

And the TGI (NCI-H226 lung)?
The TGI was over 100 µM.

And the TGI (OVCAR-5 ovarian)?
The TGI was over 100 µM.

And the TGI (MCF7 breast)?
Its TGI is over 100 µM.

And the TGI (786-0 renal)?
Its TGI is over 100 µM.

And the TGI (SK-MEL-2 melanoma)?
Its TGI is over 100 µM.

And the TGI (EKVX NSCLC)?
The TGI was over 100 µM.

What about the TGI (IGROV1 ovarian) of the same compound?
Its TGI is over 100 µM.

What about the TGI (PC-3 prostate) of the same compound?
The TGI was over 100 µM.

And the TGI (SN12C renal)?
The TGI was over 100 µM.

What about the TGI (MDA-MB-231 breast) of the same compound?
The TGI was over 100 µM.

What about the TGI (MOLT-4 leukemia) of the same compound?
The TGI was over 100 µM.

And the TGI (HL-60(TB) leukemia)?
The TGI was over 100 µM.

What about the TGI (ACHN renal) of the same compound?
Its TGI is over 100 µM.

And the TGI (BT-549 breast)?
The TGI was over 100 µM.

What does the source list for `Cc1c(C2=C(c3cn(C)c4ccccc34)C(=O)NC2=O)c2ccccc2n1C`?
GI50 (NCI-H23 lung): 13.2 µM; TGI (NCI-H23 lung): > 25 µM; GI50 (A498 renal): 1.91 µM; TGI (A498 renal): 11.2 µM; GI50 (UO-31 renal): 1.74 µM; TGI (UO-31 renal): > 25 µM; GI50 (OVCAR-8 ovarian): 10.8 µM; TGI (OVCAR-8 ovarian): > 25 µM; GI50 (SF-268 CNS): 4.82 µM; TGI (SF-268 CNS): > 25 µM; GI50 (MALME-3M melanoma): > 25 µM; TGI (MALME-3M melanoma): > 25 µM; GI50 (RXF 393 renal): 1.38 µM; TGI (RXF 393 renal): 19.6 µM; GI50 (DU-145 prostate): 9.62 µM; TGI (DU-145 prostate): > 25 µM; GI50 (UACC-62 melanoma): 1.95 µM; TGI (UACC-62 melanoma): > 25 µM; GI50 (NCI/ADR-RES ovarian): 3.65 µM; TGI (NCI/ADR-RES ovarian): > 25 µM; GI50 (U251 CNS): 2.01 µM; TGI (U251 CNS): > 25 µM; GI50 (M14 melanoma): 1.5 µM; TGI (M14 melanoma): > 25 µM; GI50 (HCT-116 colon): 1.38 µM; TGI (HCT-116 colon): > 25 µM; GI50 (A549 NSCLC): 1.74 µM; TGI (A549 NSCLC): > 25 µM; GI50 (HS 578T breast): 0.943 µM; TGI (HS 578T breast): > 25 µM; GI50 (CAKI-1 renal): 1.81 µM; TGI (CAKI-1 renal): > 25 µM; GI50 (SF-295 CNS): 1.16 µM; TGI (SF-295 CNS): > 25 µM; GI50 (KM12 colon): 3.87 µM; TGI (KM12 colon): > 25 µM; GI50 (SNB-19 CNS): > 25 µM; TGI (SNB-19 CNS): > 25 µM; GI50 (TK-10 renal): 6 µM; TGI (TK-10 renal): > 25 µM; GI50 (SK-OV-3 ovarian): 1.78 µM; TGI (SK-OV-3 ovarian): > 25 µM; GI50 (HOP-62 NSCLC): 2.72 µM; TGI (HOP-62 NSCLC): > 25 µM; GI50 (SW-620 colon): 1.26 µM; TGI (SW-620 colon): > 25 µM; GI50 (UACC-257 melanoma): > 25 µM; TGI (UACC-257 melanoma): > 25 µM; GI50 (HCC-2998 colon): 24.9 µM; TGI (HCC-2998 colon): > 25 µM; GI50 (K-562 leukemia): 1.21 µM; TGI (K-562 leukemia): > 25 µM; GI50 (SNB-75 CNS): 0.732 µM; TGI (SNB-75 CNS): 7.38 µM; GI50 (HCT-15 colon): 1.3 µM; TGI (HCT-15 colon): > 25 µM; GI50 (CCRF-CEM leukemia): 1.47 µM; TGI (CCRF-CEM leukemia): > 25 µM; GI50 (COLO 205 colon): 1.51 µM; TGI (COLO 205 colon): > 25 µM; GI50 (RPMI-8226 leukemia): > 13.8 µM; TGI (RPMI-8226 leukemia): > 25 µM; GI50 (SK-MEL-28 melanoma): > 22.3 µM; TGI (SK-MEL-28 melanoma): > 25 µM; GI50 (NCI-H460 lung): 1.29 µM; TGI (NCI-H460 lung): > 25 µM; GI50 (SF-539 CNS): 0.921 µM; TGI (SF-539 CNS): > 6.77 µM; GI50 (OVCAR-3 ovarian): 0.882 µM; TGI (OVCAR-3 ovarian): 4.73 µM; GI50 (OVCAR-4 ovarian): 9.22 µM; TGI (OVCAR-4 ovarian): > 25 µM; GI50 (SR leukemia): 1.18 µM; TGI (SR leukemia): > 25 µM; GI50 (SK-MEL-5 melanoma): 2.29 µM; TGI (SK-MEL-5 melanoma): > 25 µM; GI50 (T-47D breast): 4.07 µM; TGI (T-47D breast): > 25 µM; GI50 (NCI-H522 lung): 0.969 µM; TGI (NCI-H522 lung): > 25 µM; GI50 (LOX IMVI melanoma): 5.3 µM; TGI (LOX IMVI melanoma): > 25 µM; GI50 (HT29 colon): 1.12 µM; TGI (HT29 colon): > 25 µM; GI50 (NCI-H226 lung): 4.33 µM; TGI (NCI-H226 lung): > 25 µM; GI50 (OVCAR-5 ovarian): > 25 µM; TGI (OVCAR-5 ovarian): > 25 µM; GI50 (MCF7 breast): 0.997 µM; TGI (MCF7 breast): > 25 µM; GI50 (786-0 renal): 3.56 µM; TGI (786-0 renal): > 25 µM; GI50 (SK-MEL-2 melanoma): 1.93 µM; TGI (SK-MEL-2 melanoma): 24.3 µM; GI50 (IGROV1 ovarian): > 10.2 µM; TGI (IGROV1 ovarian): > 25 µM; GI50 (PC-3 prostate): 4.38 µM; TGI (PC-3 prostate): > 25 µM; GI50 (SN12C renal): 15.5 µM; TGI (SN12C renal): > 25 µM; GI50 (MDA-MB-231 breast): > 18.6 µM; TGI (MDA-MB-231 breast): > 25 µM; GI50 (MOLT-4 leukemia): 2.18 µM; TGI (MOLT-4 leukemia): > 25 µM; GI50 (HL-60(TB) leukemia): 0.962 µM; TGI (HL-60(TB) leukemia): > 25 µM; GI50 (ACHN renal): 4.57 µM; TGI (ACHN renal): > 25 µM; GI50 (BT-549 breast): 2.09 µM; TGI (BT-549 breast): > 25 µM
